In US6498166B1, “Pyrazolopyridines” (SmithKline Beecham Corporation, priority 1999, dated 2002):

Tests used:
human COX-2 = target: T1, human COX-2 (Homo sapiens, UniProt P35354); experiment: Inhibition of PGE2 release in COS cells stably transfected with human COX-2; format: cell-based; conditions: COS cells transfected with human COX-2; 1 hour preincubation, 30 μM arachidonic acid for 15 minutes, PGE2 by enzyme immunoassay
T1 construct: expressed in transfected cells; host or cells: COS cells (stably transfected)
T1 sequence (P35354 18-604): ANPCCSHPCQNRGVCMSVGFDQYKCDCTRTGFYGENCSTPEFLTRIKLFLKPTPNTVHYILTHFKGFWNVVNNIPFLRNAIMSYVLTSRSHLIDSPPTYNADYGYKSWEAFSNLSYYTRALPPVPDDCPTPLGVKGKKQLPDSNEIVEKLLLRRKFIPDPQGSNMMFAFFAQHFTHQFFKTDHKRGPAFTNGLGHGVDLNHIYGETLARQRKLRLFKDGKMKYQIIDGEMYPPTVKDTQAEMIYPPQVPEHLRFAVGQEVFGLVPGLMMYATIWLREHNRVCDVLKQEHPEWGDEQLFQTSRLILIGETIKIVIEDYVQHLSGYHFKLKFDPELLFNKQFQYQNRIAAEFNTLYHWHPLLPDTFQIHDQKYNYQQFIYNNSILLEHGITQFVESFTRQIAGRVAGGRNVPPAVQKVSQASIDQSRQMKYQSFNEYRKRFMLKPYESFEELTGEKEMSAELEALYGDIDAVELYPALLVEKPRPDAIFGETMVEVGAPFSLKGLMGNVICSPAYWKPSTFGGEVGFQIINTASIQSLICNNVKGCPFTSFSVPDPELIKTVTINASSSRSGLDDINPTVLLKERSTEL
Experimental: (§1) Inhibitory activity against human COX-1 and COX-2 was assessed in COS cells which had been stably transfected with cDNA for human COX-1 and human COX-2. 24 Hours prior to experiment, COS cells were transferred from the 175 cm^2 flasks in which they were grown, onto 24-well cell culture plates using the following procedure. The incubation medium (Dulbecco's modified eagles medium (DMEM) supplemented with heat-inactivated foetal calf serum (10% v/v), penicillin (100 IU/ml), streptomycin (100μg/ml) and geneticin (600 μg/ml)) was removed from a flask of confluent cells (1 flask at confluency contains approximately 1×10^7 cells). 10 ml of phosphate buffered saline (PBS) was added to the flask to wash the cells. Having discarded the PBS, cells were then rinsed in 10 ml trypsin for 20 seconds, after which the trypsin was removed and the flask placed in an incubator (37°) for 1-2 minutes until cells became detached from the flask. The flask was then removed from the incubator and cells resuspended in 10 ml of fresh incubation medium. The contents of the flask was transferred to a 250 ml sterile container and the volume of incubation medium subsequently made up to 100 ml. 1 ml cell suspension was pipetted into each well of 4×24-well cell culture plates. The plates were then placed in an incubator (37° C., 95% air/5% CO2) overnight. If more than 1 flask of cells were required, the cells from the individual flasks were combined before being dispensed into the 24-well plates.
(§2) Following the overnight incubation, the incubation medium was completely removed from the 24-well cell culture plates and replaced with 250 μl fresh DMEM (37° C.). The test compounds were made up to 250× the required test concentration in DMSO and were added to the wells in a volume of 1 μl. Plates were then mixed gently by swirling and then placed in an incubator for 1 hour (37° C., 95% air/5% CO2). Following the incubation period, 10 μl of arachidonic acid (750 μM) was added to each well to give a final arachidonic acid concentration of 30 μM. Plates were then incubated for a further 15 minutes, after which the incubation medium was removed from each well of the plates and stored at −20° C., prior to determination of prostaglandin E2 (PGE2) levels using enzyme immunoassay. The inhibitory potency of the test compound was expressed as an IC50 value, which is defined as the concentration of the compound required to inhibit the PGE2 release from the cells by 50%. The selectivity ratio of inhibition of COX-1 versus COX-2 was calculated by comparing respective IC50 values. The following IC50 values for inhibition of COX-2 and COX-1 were obtained for compounds of the invention: […]

human COX-1 = target: T2, human COX-1 (Homo sapiens, UniProt P23219); experiment: Inhibition of PGE2 release in COS cells stably transfected with human COX-1; format: cell-based; conditions: COS cells transfected with human COX-1; 1 hour preincubation, 30 μM arachidonic acid for 15 minutes, PGE2 by enzyme immunoassay
T2 construct: expressed in transfected cells; host or cells: COS cells (stably transfected)
T2 sequence (P23219 24-599): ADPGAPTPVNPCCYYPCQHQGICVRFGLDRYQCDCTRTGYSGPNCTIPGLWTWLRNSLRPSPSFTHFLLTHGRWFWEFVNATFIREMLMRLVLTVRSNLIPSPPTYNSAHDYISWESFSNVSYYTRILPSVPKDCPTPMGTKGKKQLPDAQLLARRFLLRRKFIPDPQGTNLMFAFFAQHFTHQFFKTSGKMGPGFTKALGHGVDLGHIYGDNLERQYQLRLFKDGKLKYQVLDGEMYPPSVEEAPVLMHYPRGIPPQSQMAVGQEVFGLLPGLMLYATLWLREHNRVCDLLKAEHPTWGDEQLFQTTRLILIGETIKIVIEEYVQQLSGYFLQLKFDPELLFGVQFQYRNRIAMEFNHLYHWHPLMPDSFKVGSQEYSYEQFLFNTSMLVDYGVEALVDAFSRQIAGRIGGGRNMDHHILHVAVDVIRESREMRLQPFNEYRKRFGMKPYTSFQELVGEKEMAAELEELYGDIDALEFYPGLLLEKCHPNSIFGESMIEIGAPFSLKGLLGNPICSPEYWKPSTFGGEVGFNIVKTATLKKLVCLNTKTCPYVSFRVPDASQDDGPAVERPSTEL
Experimental: as §1, §2

SMILES | IC50 (human COX-2) [nM] | IC50 (human COX-1) [µM]
CS(=O)(=O)c1ccc(-c2c(-c3ccc(F)cc3)nn3cc(Br)ccc23)cc1 [4(iii), 6-Bromo-2-(4-fluorophenyl)-3-[4-(methylsulfonyl)phenyl]pyrazolo[1,5-a]pyridine] | 5 | > 100
NS(=O)(=O)c1ccc(-c2c(-c3ccc(F)cc3)nn3cc(Br)ccc23)cc1 [Example 3(vi), 4-[6-Bromo-2-(4-fluorophenyl)pyrazolo[1,5-a]pyridin-3-yl]benzenesulfonamide] | 1 | 6.76
NS(=O)(=O)c1ccc(-c2c(-c3cccc(F)c3)nn3cc(Cl)ccc23)cc1 [Example 7, 4-[6-Chloro-2-(3-fluorophenyl)pyrazolo[1,5-a]pyridin-3-yl]benzenesulfonamide] | 1 | 6.76
CCOc1ccc(-c2nn3cc(Cl)ccc3c2-c2ccc(S(N)(=O)=O)cc2)cc1 [Example 6, 4-[6-Chloro-2-(4-ethoxyphenyl)pyrazolo[1,5-a]pyridin-3-yl]benzenesulfonamide] | 12 | > 100
NS(=O)(=O)c1ccc(-c2c(-c3ccccc3)nn3cc(Cl)ccc23)cc1 [8(iii), 4-[6-Chloro-2-phenyl-pyrazolo[1,5-a]pyridin-3-yl]benzenesulfonamide] | 5 | > 100
CS(=O)(=O)c1ccc(-c2c(-c3ccc(F)cc3)nn3cc(C#N)ccc23)cc1 [Example 2, 2-(4-Fluorophenyl)-3-[4-(methylsulfonyl)phenyl]pyrazolo[1,5-a]pyridine-6-carbonitrile] | 12 | > 100
N#Cc1ccc2c(-c3ccc(S(N)(=O)=O)cc3)c(-c3ccc(F)cc3)nn2c1 [Example 1(iv), 4-[6-Cyano-2-(4-fluorophenyl)pyrazolo[1,5-a]pyridin-3-yl]benzenesulfonamide] | 21 | 20.9
NS(=O)(=O)c1ccc(-c2c(-c3ccc(F)cc3)nn3cc(Cl)ccc23)cc1 [Example 5(vi), 4-[6-Chloro-2-(4-fluorophenyl)pyrazolo[1,5-a]pyridin-3-yl]benzenesulfonamide] | 21 | 20.9
